The IC50 is the midpoint of a concentration-inhibition curve.

This note sets out measurements from paper PMC8632988, “Inhibition of SYK and cSrc kinases can protect bone and cartilage in preclinical models of osteoarthritis and rheumatoid arthritis” (Scientific Reports, 2021).

“And” between values parts separate entries of the source, which are not always exact repeats. Equal entries are not always repeated.

Common to all, as to assay: Kinase selectivity profile assay
Common to all, as to assay type: biochemical

One assay has as its target T1, CAMK2a (Homo sapiens, UniProt Q9UQM7).
T1 construct: purchased Reaction Biology Corporation
The following applies: 500 nM; relative to DMSO; read-out: Residual enzymatic activity. A digest of the protocol:
(§1)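 Radiometric kinase assay run by a standard protocol. Unbound phosphate was removed by washing filters in phosphoric acid, and product radioactivity gave percent remaining kinase activity versus DMSO vehicle reactions. Run in duplicate.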

For another assay, the target named is T2, PLK4/SAK (Homo sapiens, UniProt O00444).
T2 construct: purchased Reaction Biology Corporation
Particulars: 500 nM; relative to DMSO; read-out: Residual enzymatic activity. The method in brief:
as §1

The target in the next assay is T3, CDK2/cyclin E (Homo sapiens, UniProt P24941).
T3 construct: purchased Reaction Biology Corporation
Particulars: 500 nM; relative to DMSO; read-out: Residual enzymatic activity. A digest of the protocol:
as §1

In another assay the target is T4, STK22D/TSSK1 (Homo sapiens, UniProt Q9BXA7).
T4 construct: purchased Reaction Biology Corporation (Malvern, PA, USA)
T4 sequence (Q9BXA7 1-367): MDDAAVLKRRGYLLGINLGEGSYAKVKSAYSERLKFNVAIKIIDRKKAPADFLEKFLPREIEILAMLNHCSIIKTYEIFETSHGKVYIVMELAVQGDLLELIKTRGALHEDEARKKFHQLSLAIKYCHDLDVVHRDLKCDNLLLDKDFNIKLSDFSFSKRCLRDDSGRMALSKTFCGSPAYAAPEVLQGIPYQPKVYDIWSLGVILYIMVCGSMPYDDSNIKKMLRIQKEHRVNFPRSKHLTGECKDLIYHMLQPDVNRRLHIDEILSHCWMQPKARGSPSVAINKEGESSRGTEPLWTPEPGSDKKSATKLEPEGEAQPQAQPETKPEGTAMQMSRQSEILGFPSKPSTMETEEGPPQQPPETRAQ
Particulars: for remaining activity at 0.5 µM: 500 nM, relative to DMSO, read-out: Residual enzymatic activity. The method in brief:
as §1

A further assay concerns the target T5, GRK3 (Homo sapiens, UniProt P35626).
T5 construct: purchased Reaction Biology Corporation
Particulars: 500 nM; relative to DMSO; read-out: Residual enzymatic activity. The method in brief:
as §1

The target of another assay is T6, CAMKK2 (Homo sapiens, UniProt Q96RR4).
T6 construct: purchased Reaction Biology Corporation
The following applies: 500 nM; relative to DMSO; read-out: Residual enzymatic activity. The method in brief:
as §1

The next assay deals with T7, STK16 (Homo sapiens, UniProt O75716).
T7 construct: purchased Reaction Biology Corporation
The following applies: 500 nM; relative to DMSO; read-out: Residual enzymatic activity. The method in brief:
as §1

In a further assay the target is T8, TYK1/LTK (Homo sapiens, UniProt P29376).
T8 construct: purchased Reaction Biology Corporation
The following applies: 500 nM; relative to DMSO; read-out: Residual enzymatic activity. The method in brief: as §1

The next assay concerns the target T9, FGFR1 (Homo sapiens, UniProt P11362).
T9 construct: purchased Reaction Biology Corporation
Particulars: 500 nM, relative to DMSO. The method in brief:
as §1

A further assay deals with T10, HPK1/MAP4K1 (Homo sapiens, UniProt Q92918).
T10 construct: purchased Reaction Biology Corporation
Particulars: 500 nM; relative to DMSO; read-out: Residual enzymatic activity. A digest of the protocol: as §1

A further assay addresses T11, ULK2 (Homo sapiens, UniProt Q8IYT8).
T11 construct: purchased Reaction Biology Corporation
The following applies: 500 nM; relative to DMSO; read-out: Residual enzymatic activity. The method in brief: as §1

The target in a further assay is T12, RON/MST1R (Homo sapiens, UniProt Q04912).
T12 construct: purchased Reaction Biology Corporation
Particulars: 500 nM; relative to DMSO; read-out: Residual enzymatic activity. The method in brief: as §1

In another assay the target is T13, ULK1 (Homo sapiens, UniProt O75385).
T13 construct: purchased Reaction Biology Corporation
Particulars: 500 nM; relative to DMSO; read-out: Residual enzymatic activity. The method in brief:
as §1

The next assay concerns the target T14, TAOK1 (Homo sapiens, UniProt Q7L7X3).
T14 construct: purchased Reaction Biology Corporation
Particulars: 500 nM; relative to DMSO; read-out: Residual enzymatic activity. A digest of the protocol: as §1

The target in the next assay is T15, PKCb2 (Homo sapiens, UniProt P05771).
T15 construct: purchased Reaction Biology Corporation
The following applies: 500 nM; relative to DMSO; read-out: Residual enzymatic activity. A digest of the protocol:
as §1

The next assay deals with T16, SRMS (Homo sapiens, UniProt Q9H3Y6).
T16 construct: purchased Reaction Biology Corporation
Particulars: 500 nM; relative to DMSO; read-out: Residual enzymatic activity. The method in brief: as §1

For the next assay, the target named is T17, TLK1 (Homo sapiens, UniProt Q9UKI8).
T17 construct: purchased Reaction Biology Corporation
The following applies: 500 nM; relative to DMSO; read-out: Residual enzymatic activity. A digest of the protocol: as §1

The next assay has as its target T18, MEKK3 (Homo sapiens, UniProt Q99759).
T18 construct: purchased Reaction Biology Corporation
The following applies: 500 nM; relative to DMSO; read-out: Residual enzymatic activity. A digest of the protocol:
as §1

The next assay concerns the target T19, AKT3 (Homo sapiens, UniProt Q9Y243).
T19 construct: purchased Reaction Biology Corporation
Particulars: 500 nM; relative to DMSO; read-out: Residual enzymatic activity. The method in brief: as §1

Another assay deals with T20, EPHB1 (Homo sapiens, UniProt P54762).
T20 construct: purchased Reaction Biology Corporation (assay service)
T20 sequence (P54762 18-984): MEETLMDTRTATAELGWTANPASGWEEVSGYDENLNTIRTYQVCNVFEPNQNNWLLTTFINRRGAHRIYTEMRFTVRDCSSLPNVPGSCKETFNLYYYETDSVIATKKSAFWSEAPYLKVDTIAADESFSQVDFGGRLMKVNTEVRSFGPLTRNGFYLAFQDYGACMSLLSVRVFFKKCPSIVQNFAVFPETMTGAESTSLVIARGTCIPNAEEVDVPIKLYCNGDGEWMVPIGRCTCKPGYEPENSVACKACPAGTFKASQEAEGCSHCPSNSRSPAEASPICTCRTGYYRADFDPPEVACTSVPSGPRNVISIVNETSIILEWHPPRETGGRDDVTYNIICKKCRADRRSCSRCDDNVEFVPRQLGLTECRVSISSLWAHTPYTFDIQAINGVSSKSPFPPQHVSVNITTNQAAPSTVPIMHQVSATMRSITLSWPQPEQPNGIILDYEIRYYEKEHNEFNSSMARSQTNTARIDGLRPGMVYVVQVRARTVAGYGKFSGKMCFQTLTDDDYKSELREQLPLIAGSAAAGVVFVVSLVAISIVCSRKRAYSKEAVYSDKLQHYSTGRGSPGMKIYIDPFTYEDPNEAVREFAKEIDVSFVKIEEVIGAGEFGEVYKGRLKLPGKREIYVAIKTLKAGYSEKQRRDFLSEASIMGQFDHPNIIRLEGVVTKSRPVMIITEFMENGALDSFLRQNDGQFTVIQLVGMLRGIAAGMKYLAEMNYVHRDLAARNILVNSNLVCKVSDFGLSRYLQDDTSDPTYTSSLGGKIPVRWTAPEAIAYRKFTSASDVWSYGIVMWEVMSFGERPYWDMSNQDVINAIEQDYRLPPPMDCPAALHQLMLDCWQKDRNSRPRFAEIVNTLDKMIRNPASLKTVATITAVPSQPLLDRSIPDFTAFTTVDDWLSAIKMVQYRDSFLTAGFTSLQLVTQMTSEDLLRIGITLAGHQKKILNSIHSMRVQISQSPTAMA
The following applies: for remaining activity at 0.5 µM: 500 nM, relative to DMSO, read-out: Residual enzymatic activity. The method in brief:
as §1

Another assay addresses T21, CDK4/cyclin D3 (Homo sapiens, UniProt P11802).
T21 construct: purchased Reaction Biology Corporation
Particulars: 500 nM; relative to DMSO; read-out: Residual enzymatic activity. The method in brief:
as §1

The next assay deals with T22, ALK5/TGFBR1 (Homo sapiens, UniProt P36897).
T22 construct: purchased Reaction Biology Corporation
Particulars: 500 nM; relative to DMSO; read-out: Residual enzymatic activity. The method in brief: as §1

Setting [1] is: 10-dose mode, threefold serial dilution from 10 μM.

T10 sequence (Q92918 whole entry): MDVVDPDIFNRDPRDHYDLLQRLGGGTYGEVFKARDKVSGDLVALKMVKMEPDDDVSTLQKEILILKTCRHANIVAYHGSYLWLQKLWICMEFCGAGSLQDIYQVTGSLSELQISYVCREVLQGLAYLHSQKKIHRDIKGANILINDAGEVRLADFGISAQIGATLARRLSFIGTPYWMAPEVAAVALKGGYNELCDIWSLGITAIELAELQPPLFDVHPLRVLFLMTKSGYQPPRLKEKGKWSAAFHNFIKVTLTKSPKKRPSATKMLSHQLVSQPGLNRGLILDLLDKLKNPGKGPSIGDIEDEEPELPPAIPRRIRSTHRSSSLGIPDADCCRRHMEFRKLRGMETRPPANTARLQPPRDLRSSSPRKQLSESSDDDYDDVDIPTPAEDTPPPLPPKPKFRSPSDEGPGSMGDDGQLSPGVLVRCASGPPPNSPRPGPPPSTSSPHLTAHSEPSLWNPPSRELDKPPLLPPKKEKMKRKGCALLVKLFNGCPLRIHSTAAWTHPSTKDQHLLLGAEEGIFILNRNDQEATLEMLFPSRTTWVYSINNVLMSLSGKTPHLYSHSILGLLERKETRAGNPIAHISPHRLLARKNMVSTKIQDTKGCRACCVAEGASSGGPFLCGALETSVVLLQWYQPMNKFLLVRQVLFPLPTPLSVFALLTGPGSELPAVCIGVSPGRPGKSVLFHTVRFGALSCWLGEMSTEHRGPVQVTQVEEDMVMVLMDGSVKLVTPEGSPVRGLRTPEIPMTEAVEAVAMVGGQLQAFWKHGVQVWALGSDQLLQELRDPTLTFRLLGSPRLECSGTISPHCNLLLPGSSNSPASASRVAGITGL
T9 sequence (P11362 22-822): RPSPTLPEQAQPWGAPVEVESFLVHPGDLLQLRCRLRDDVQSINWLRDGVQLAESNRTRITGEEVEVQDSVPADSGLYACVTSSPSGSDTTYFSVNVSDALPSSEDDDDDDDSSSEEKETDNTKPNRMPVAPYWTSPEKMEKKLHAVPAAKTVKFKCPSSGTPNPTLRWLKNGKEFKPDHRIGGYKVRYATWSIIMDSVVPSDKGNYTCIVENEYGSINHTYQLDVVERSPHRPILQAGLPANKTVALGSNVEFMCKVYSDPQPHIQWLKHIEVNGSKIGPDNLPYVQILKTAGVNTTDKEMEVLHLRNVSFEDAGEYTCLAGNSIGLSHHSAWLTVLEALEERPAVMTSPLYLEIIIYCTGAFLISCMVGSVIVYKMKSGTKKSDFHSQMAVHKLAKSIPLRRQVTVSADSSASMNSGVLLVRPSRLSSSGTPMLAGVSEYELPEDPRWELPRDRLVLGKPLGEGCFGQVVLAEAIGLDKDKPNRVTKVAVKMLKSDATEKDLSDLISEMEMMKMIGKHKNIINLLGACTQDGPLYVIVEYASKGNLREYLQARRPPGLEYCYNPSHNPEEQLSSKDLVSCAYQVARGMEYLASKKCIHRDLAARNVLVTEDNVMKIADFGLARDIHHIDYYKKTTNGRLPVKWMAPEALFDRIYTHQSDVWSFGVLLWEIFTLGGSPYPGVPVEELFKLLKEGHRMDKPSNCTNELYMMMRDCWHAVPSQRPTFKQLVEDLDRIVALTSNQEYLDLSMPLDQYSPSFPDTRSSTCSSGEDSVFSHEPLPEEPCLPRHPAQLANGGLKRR
T8 sequence (P29376 17-864): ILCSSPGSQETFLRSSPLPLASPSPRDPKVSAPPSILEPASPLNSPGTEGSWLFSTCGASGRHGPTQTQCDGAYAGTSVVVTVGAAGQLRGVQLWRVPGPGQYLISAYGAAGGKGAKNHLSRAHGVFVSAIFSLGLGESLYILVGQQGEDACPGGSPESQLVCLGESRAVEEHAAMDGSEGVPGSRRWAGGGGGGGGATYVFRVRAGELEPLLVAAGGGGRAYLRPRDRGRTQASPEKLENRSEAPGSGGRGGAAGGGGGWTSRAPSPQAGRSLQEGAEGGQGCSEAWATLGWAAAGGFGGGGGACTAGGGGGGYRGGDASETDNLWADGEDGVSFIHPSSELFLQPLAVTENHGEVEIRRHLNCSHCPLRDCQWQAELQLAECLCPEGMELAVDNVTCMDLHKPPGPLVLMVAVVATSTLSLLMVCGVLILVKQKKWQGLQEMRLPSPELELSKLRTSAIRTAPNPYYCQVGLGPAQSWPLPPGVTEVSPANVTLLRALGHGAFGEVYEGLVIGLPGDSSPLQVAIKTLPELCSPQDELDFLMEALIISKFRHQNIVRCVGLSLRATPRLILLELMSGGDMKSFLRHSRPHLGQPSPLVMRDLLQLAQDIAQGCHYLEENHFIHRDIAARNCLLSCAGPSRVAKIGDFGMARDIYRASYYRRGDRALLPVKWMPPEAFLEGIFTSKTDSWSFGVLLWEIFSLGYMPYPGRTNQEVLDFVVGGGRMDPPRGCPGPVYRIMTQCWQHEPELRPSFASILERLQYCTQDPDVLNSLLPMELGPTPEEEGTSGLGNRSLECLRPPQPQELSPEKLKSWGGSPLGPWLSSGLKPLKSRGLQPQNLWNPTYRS
T12 sequence (Q04912 25-1400): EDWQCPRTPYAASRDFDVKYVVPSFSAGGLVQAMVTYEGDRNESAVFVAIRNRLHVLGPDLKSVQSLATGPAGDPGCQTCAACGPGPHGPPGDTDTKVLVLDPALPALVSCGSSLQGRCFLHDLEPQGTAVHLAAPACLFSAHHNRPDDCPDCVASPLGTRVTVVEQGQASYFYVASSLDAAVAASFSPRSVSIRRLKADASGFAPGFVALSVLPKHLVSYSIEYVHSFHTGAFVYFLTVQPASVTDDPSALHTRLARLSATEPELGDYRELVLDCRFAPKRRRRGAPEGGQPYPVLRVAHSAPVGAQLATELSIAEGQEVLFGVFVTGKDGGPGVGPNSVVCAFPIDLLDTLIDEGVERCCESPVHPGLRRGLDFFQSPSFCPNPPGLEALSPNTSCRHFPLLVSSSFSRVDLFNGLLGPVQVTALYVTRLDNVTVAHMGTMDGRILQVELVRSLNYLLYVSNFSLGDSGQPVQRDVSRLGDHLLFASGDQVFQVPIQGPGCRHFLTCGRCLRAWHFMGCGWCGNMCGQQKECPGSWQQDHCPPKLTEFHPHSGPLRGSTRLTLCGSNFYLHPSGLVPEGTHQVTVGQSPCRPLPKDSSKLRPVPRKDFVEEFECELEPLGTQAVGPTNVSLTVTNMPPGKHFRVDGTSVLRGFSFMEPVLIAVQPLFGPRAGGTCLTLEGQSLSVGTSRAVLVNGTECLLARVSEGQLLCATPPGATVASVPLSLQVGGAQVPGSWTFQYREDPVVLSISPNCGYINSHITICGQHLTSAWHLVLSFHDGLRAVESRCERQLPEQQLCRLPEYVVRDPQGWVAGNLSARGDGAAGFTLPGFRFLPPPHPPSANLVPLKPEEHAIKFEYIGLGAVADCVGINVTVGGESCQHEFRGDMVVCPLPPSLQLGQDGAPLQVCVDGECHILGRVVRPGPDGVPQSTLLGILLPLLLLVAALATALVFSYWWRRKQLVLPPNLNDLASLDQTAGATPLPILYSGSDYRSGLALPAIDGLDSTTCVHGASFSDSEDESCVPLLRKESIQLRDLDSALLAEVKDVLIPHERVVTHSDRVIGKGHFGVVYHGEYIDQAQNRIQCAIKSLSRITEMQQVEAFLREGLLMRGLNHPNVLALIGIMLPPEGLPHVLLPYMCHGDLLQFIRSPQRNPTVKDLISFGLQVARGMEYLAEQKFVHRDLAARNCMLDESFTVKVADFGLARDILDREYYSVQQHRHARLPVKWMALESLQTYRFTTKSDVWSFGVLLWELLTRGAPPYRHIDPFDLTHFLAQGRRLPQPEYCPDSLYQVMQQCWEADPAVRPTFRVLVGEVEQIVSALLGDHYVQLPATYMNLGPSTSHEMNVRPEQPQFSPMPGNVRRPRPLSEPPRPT
T6 sequence (Q96RR4 whole entry): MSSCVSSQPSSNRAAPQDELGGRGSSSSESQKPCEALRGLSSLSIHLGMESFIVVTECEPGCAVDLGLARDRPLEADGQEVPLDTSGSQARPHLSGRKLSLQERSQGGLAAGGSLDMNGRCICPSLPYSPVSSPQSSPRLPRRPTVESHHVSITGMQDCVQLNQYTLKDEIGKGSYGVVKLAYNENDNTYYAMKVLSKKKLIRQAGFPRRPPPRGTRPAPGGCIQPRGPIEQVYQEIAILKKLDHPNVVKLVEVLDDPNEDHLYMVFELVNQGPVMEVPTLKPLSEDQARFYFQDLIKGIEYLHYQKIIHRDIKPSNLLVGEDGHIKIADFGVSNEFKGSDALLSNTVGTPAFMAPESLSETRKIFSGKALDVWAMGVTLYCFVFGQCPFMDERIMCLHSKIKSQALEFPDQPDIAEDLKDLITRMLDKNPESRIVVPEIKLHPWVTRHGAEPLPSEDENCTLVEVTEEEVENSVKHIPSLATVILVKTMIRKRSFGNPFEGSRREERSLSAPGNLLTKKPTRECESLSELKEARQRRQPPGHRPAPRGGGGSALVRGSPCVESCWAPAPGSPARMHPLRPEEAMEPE
T19 sequence (Q9Y243 whole entry): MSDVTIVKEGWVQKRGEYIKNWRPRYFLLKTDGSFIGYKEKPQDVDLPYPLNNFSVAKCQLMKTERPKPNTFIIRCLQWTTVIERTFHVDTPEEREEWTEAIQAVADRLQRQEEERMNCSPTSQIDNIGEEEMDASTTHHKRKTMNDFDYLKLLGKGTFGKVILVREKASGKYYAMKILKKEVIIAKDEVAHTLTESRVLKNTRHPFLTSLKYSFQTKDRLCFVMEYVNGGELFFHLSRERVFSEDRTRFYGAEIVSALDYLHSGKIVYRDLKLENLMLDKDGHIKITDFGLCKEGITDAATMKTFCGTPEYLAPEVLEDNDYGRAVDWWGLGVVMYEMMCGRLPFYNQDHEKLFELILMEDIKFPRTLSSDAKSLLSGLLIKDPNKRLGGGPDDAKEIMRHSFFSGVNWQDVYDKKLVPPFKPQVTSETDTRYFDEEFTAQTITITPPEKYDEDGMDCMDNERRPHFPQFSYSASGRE

On to `COc1cc(Nc2ncnc(Nc3cc4c(cn3)NC(=O)C(C)(C)O4)n2)cc(OC)c1OC` [MT-SYK-03], for which the remaining activity at 0.5 µM at CAMK2a worked out at 94.1%; on PLK4/SAK, 77.8%; on CDK2/cyclin E it was 82.1%; on STK22D/TSSK1, 49.9%; on GRK3, 103%; at CAMKK2 it was 97.2%. Also, the remaining activity at 0.5 µM at STK16 was 50.6%; at TYK1/LTK, 92%; at HPK1/MAP4K1, 107%; on ULK2, 111%; on RON/MST1R, 98.4%; on ULK1, 62.2%. The remaining activity at 0.5 µM on TAOK1 worked out at 102%; on PKCb2 it was 87.7%; at SRMS, 99.7%; at TLK1, 101%; on MEKK3, 116%; on AKT3 it was 103%. Besides, the remaining activity at 0.5 µM on EPHB1 was 9.6%; on CDK4/cyclin D3, 100%; on ALK5/TGFBR1 it was 104%. In addition, the IC50 against STK22D/TSSK1 (setting [1]) was 198 nM; on EPHB1 (setting [1]), 25 nM and 24.7 nM. Moreover, the Residual enzymatic activity on FGFR1 is given as 77.5%.
As to `COc1cc(Nc2ncc(F)c(Nc3ccc4c(n3)NC(=O)C(C)(C)O4)n2)cc(OC)c1OC` [R406, reference compound], the remaining activity at 0.5 µM is 94.4% on CAMK2a; 17.2% at PLK4/SAK; 60% on CDK2/cyclin E; 9.6% at STK22D/TSSK1; 102% at GRK3; 88.8% at CAMKK2. Besides, the remaining activity at 0.5 µM on STK16 amounted to 6.3%; on TYK1/LTK, 30.2%; on FGFR1 (read-out: Residual enzymatic activity), 29%; at HPK1/MAP4K1, 98.8%; at ULK2, 37.9%; at RON/MST1R it was 47.9%. The remaining activity at 0.5 µM at ULK1 is 8.8%; on TAOK1, 78.1%; on PKCb2, 30.7%; at SRMS, 101%; on TLK1, 75.1%; on MEKK3 it was 76.1%. Further, the remaining activity at 0.5 µM was 95.2% on AKT3, -4% on EPHB1, 99.6% on CDK4/cyclin D3 and 108% on ALK5/TGFBR1.
